Results reported in PubChem BioAssay (NCI).
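GI50 marks 50% less growth. Definition used: TGI = concentration required for complete inhibition of growth.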

Legend:
Experiment in all cases: DTP human tumour cell line panel, 384-well format
786-0 renal = tested on: 786-0 renal
A498 renal = tested on: A498 renal
A549 NSCLC = tested on: A549 NSCLC
ACHN renal = tested on: ACHN renal
BT-549 breast = tested on: BT-549 breast
CAKI-1 renal = tested on: CAKI-1 renal
CCRF-CEM leukemia = tested on: CCRF-CEM leukemia
COLO 205 colon = tested on: COLO 205 colon
DU-145 prostate = tested on: DU-145 prostate
EKVX NSCLC = tested on: EKVX NSCLC
HCC-2998 colon = tested on: HCC-2998 colon
HCT-116 colon = tested on: HCT-116 colon
HCT-15 colon = tested on: HCT-15 colon
HL-60(TB) leukemia = tested on: HL-60(TB) leukemia
HOP-62 NSCLC = tested on: HOP-62 NSCLC
HOP-92 NSCLC = tested on: HOP-92 NSCLC
HS 578T breast = tested on: HS 578T breast
HT29 colon = tested on: HT29 colon
IGROV1 ovarian = tested on: IGROV1 ovarian
K-562 leukemia = tested on: K-562 leukemia
KM12 colon = tested on: KM12 colon
LOX IMVI melanoma = tested on: LOX IMVI melanoma
M14 melanoma = tested on: M14 melanoma
MALME-3M melanoma = tested on: MALME-3M melanoma
MCF7 breast = tested on: MCF7 breast
MDA-MB-231 breast = tested on: MDA-MB-231 breast
MDA-MB-435 melanoma = tested on: MDA-MB-435 melanoma
MDA-MB-468 breast = tested on: MDA-MB-468 breast
MOLT-4 leukemia = tested on: MOLT-4 leukemia
NCI-H226 lung = tested on: NCI-H226 lung
NCI-H23 lung = tested on: NCI-H23 lung
NCI-H322M lung = tested on: NCI-H322M lung
NCI-H460 NSCLC = tested on: NCI-H460 NSCLC
NCI-H522 lung = tested on: NCI-H522 lung
NCI/ADR-RES ovarian = tested on: NCI/ADR-RES ovarian
OVCAR-3 ovarian = tested on: OVCAR-3 ovarian
OVCAR-4 ovarian = tested on: OVCAR-4 ovarian
OVCAR-5 ovarian = tested on: OVCAR-5 ovarian
OVCAR-8 ovarian = tested on: OVCAR-8 ovarian
PC-3 prostate = tested on: PC-3 prostate
RPMI-8226 leukemia = tested on: RPMI-8226 leukemia
RXF 393 renal = tested on: RXF 393 renal
SF-268 CNS = tested on: SF-268 CNS
SF-295 CNS = tested on: SF-295 CNS
SF-539 CNS = tested on: SF-539 CNS
SK-MEL-2 melanoma = tested on: SK-MEL-2 melanoma
SK-MEL-28 melanoma = tested on: SK-MEL-28 melanoma
SK-MEL-5 melanoma = tested on: SK-MEL-5 melanoma
SK-OV-3 ovarian = tested on: SK-OV-3 ovarian
SN12C renal = tested on: SN12C renal
SNB-19 CNS = tested on: SNB-19 CNS
SNB-75 CNS = tested on: SNB-75 CNS
SR leukemia = tested on: SR leukemia
SW-620 colon = tested on: SW-620 colon
T-47D breast = tested on: T-47D breast
TK-10 renal = tested on: TK-10 renal
U251 glioblastoma = tested on: U251 glioblastoma
UACC-257 melanoma = tested on: UACC-257 melanoma
UACC-62 melanoma = tested on: UACC-62 melanoma
UO-31 renal = tested on: UO-31 renal

## CC[C@H](Nc1ncnc2nc[nH]c12)c1oc2ccccc2c(=O)c1-c1cccc(F)c1
786-0 renal
  GI50: 27.2 µM
  TGI: > 95 µM
A498 renal
  GI50: 27.8 µM
  TGI: > 100 µM
A549 NSCLC
  GI50: 27.9 µM
  TGI: > 100 µM
ACHN renal
  GI50: 23.2 µM
  TGI: 77.5 µM
BT-549 breast
  GI50: 15.5 µM
  TGI: 39.5 µM
CAKI-1 renal
  GI50: 28.6 µM
  TGI: > 100 µM
CCRF-CEM leukemia
  GI50: 16.8 µM
  TGI: 31 µM
COLO 205 colon
  GI50: 42.4 µM
  TGI: > 100 µM
DU-145 prostate
  GI50: 29.6 µM
  TGI: > 100 µM
EKVX NSCLC
  GI50: 23.8 µM
  TGI: 70.7 µM
HCC-2998 colon
  GI50: 32.6 µM
  TGI: 80 µM
HCT-116 colon
  GI50: 36.9 µM
  TGI: > 100 µM
HCT-15 colon
  GI50: 30.7 µM
  TGI: 99.1 µM
HL-60(TB) leukemia
  GI50: 21.8 µM
  TGI: 36.6 µM
HOP-62 NSCLC
  GI50: 30.1 µM
  TGI: > 100 µM
HOP-92 NSCLC
  GI50: 14.6 µM
  TGI: 39.1 µM
HS 578T breast
  GI50: 15.1 µM
  TGI: 37.2 µM
HT29 colon
  GI50: 32.3 µM
  TGI: > 100 µM
IGROV1 ovarian
  GI50: 24.1 µM
  TGI: 59.2 µM
K-562 leukemia
  GI50: 26.5 µM
  TGI: > 96.6 µM
KM12 colon
  GI50: 36.8 µM
  TGI: > 100 µM
LOX IMVI melanoma
  GI50: 26.3 µM
  TGI: 82.1 µM
M14 melanoma
  GI50: 37.7 µM
  TGI: > 100 µM
MALME-3M melanoma
  GI50: 23.6 µM
  TGI: 62.8 µM
MCF7 breast
  GI50: 29.6 µM
  TGI: > 87.3 µM
MDA-MB-231 breast
  GI50: 26.2 µM
  TGI: > 100 µM
MDA-MB-435 melanoma
  GI50: 24.2 µM
  TGI: 56.5 µM
MDA-MB-468 breast
  GI50: 9.6 µM
  TGI: 27.2 µM
MOLT-4 leukemia
  GI50: 15.8 µM
  TGI: 29.6 µM
NCI-H226 lung
  GI50: 23.8 µM
  TGI: 83 µM
NCI-H23 lung
  GI50: 23.9 µM
  TGI: 78.3 µM
NCI-H322M lung
  GI50: 90.5 µM
  TGI: > 100 µM
NCI-H460 NSCLC
  GI50: 34.7 µM
  TGI: > 100 µM
NCI-H522 lung
  GI50: 20.6 µM
  TGI: 47.7 µM
NCI/ADR-RES ovarian
  GI50: 24 µM
  TGI: 60.4 µM
OVCAR-3 ovarian
  GI50: 18.2 µM
  TGI: 40.8 µM
OVCAR-4 ovarian
  GI50: 17.9 µM
  TGI: 54.2 µM
OVCAR-5 ovarian
  GI50: 39.9 µM
  TGI: > 100 µM
OVCAR-8 ovarian
  GI50: 32.6 µM
  TGI: > 100 µM
PC-3 prostate
  GI50: 18.5 µM
  TGI: 52.6 µM
RPMI-8226 leukemia
  GI50: 8.38 µM
  TGI: 20.5 µM
RXF 393 renal
  GI50: 21.1 µM
  TGI: > 69.5 µM
SF-268 CNS
  GI50: 29.8 µM
  TGI: > 89.4 µM
SF-295 CNS
  GI50: 20.7 µM
  TGI: > 74.6 µM
SF-539 CNS
  GI50: 45.9 µM
  TGI: > 100 µM
SK-MEL-2 melanoma
  GI50: 13.7 µM
  TGI: 30.1 µM
SK-MEL-28 melanoma
  GI50: 27.7 µM
  TGI: > 86.1 µM
SK-MEL-5 melanoma
  GI50: 17.9 µM
  TGI: 39.7 µM
SK-OV-3 ovarian
  GI50: 24.5 µM
  TGI: 63.8 µM
SN12C renal
  GI50: 30.5 µM
  TGI: 98.9 µM
SNB-19 CNS
  GI50: 37.1 µM
  TGI: > 100 µM
SNB-75 CNS
  GI50: 23.2 µM
  TGI: 60.7 µM
SR leukemia
  GI50: 12.4 µM
  TGI: 25.2 µM
SW-620 colon
  GI50: 48.7 µM
  TGI: > 81.2 µM
T-47D breast
  GI50: 24.4 µM
  TGI: > 86.2 µM
TK-10 renal
  GI50: 29.8 µM
  TGI: > 95.2 µM
U251 glioblastoma
  GI50: 31 µM
  TGI: > 100 µM
UACC-257 melanoma
  GI50: 33 µM
  TGI: > 87.9 µM
UACC-62 melanoma
  GI50: 16.3 µM
  TGI: 36.8 µM
UO-31 renal
  GI50: 3.16 µM
  TGI: > 100 µM

## CN(C(=O)c1ccc(C(F)(F)F)cc1)c1ccc(Oc2ccc3c(c2)cc(C(=O)N2CCN(Cc4ccc(OC(F)F)cc4)CC2)n3C)nc1
786-0 renal
  GI50: > 100 µM
  TGI: > 100 µM
A498 renal
  GI50: < 0.01 µM
  TGI: 0.0209 µM
A549 NSCLC
  GI50: < 0.01 µM
  TGI: > 100 µM
ACHN renal
  GI50: > 100 µM
  TGI: > 100 µM
BT-549 breast
  GI50: 1.27 µM
  TGI: > 100 µM
CAKI-1 renal
  GI50: > 100 µM
  TGI: > 100 µM
CCRF-CEM leukemia
  GI50: < 0.01 µM
  TGI: 1.04 µM
COLO 205 colon
  GI50: > 100 µM
  TGI: > 100 µM
DU-145 prostate
  GI50: > 100 µM
  TGI: > 100 µM
HCT-15 colon
  GI50: 6.41 µM
  TGI: > 100 µM
HL-60(TB) leukemia
  GI50: 1.01 µM
  TGI: 2.56 µM
HOP-62 NSCLC
  GI50: < 0.01 µM
  TGI: > 100 µM
HOP-92 NSCLC
  GI50: 0.864 µM
  TGI: > 100 µM
HT29 colon
  GI50: > 100 µM
  TGI: > 100 µM
IGROV1 ovarian
  GI50: 0.0201 µM
  TGI: > 100 µM
K-562 leukemia
  GI50: < 0.01 µM
  TGI: > 100 µM
KM12 colon
  GI50: > 100 µM
  TGI: > 100 µM
LOX IMVI melanoma
  GI50: < 0.01 µM
  TGI: > 100 µM
M14 melanoma
  GI50: 6.53 µM
  TGI: > 100 µM
MALME-3M melanoma
  GI50: > 100 µM
  TGI: > 100 µM
MCF7 breast
  GI50: 0.136 µM
  TGI: > 100 µM
MDA-MB-231 breast
  GI50: < 0.01 µM
  TGI: > 100 µM
MDA-MB-435 melanoma
  GI50: > 100 µM
  TGI: > 100 µM
MDA-MB-468 breast
  GI50: < 0.01 µM
  TGI: < 0.01 µM
MOLT-4 leukemia
  GI50: < 0.01 µM
  TGI: 1.42 µM
NCI-H226 lung
  GI50: 0.431 µM
  TGI: > 100 µM
NCI-H23 lung
  GI50: < 0.01 µM
  TGI: < 0.01 µM
NCI-H322M lung
  GI50: < 0.01 µM
  TGI: > 100 µM
NCI-H460 NSCLC
  GI50: < 0.01 µM
  TGI: < 0.01 µM
NCI-H522 lung
  GI50: < 0.01 µM
  TGI: > 100 µM
NCI/ADR-RES ovarian
  GI50: < 0.01 µM
  TGI: 0.0671 µM
OVCAR-3 ovarian
  GI50: 3.02 µM
  TGI: > 100 µM
OVCAR-4 ovarian
  GI50: < 0.01 µM
  TGI: > 100 µM
OVCAR-5 ovarian
  GI50: > 100 µM
  TGI: > 100 µM
OVCAR-8 ovarian
  GI50: < 0.01 µM
  TGI: > 100 µM
PC-3 prostate
  GI50: 3.48 µM
  TGI: > 100 µM
RPMI-8226 leukemia
  GI50: < 0.01 µM
  TGI: < 0.01 µM
RXF 393 renal
  GI50: < 0.01 µM
  TGI: < 0.01 µM
SF-295 CNS
  GI50: 0.0107 µM
  TGI: > 100 µM
SF-539 CNS
  GI50: > 100 µM
  TGI: > 100 µM
SK-MEL-2 melanoma
  GI50: > 100 µM
  TGI: > 100 µM
SK-MEL-28 melanoma
  GI50: > 100 µM
  TGI: > 100 µM
SK-MEL-5 melanoma
  GI50: < 0.01 µM
  TGI: 0.95 µM
SK-OV-3 ovarian
  GI50: < 0.01 µM
  TGI: > 100 µM
SN12C renal
  GI50: > 100 µM
  TGI: > 100 µM
SR leukemia
  GI50: < 0.01 µM
  TGI: < 0.01 µM
SW-620 colon
  GI50: 8.11 µM
  TGI: > 100 µM
T-47D breast
  GI50: < 0.01 µM
  TGI: 6.89 µM
TK-10 renal
  GI50: 2.97 µM
  TGI: > 100 µM
U251 glioblastoma
  GI50: < 0.01 µM
  TGI: > 100 µM
UACC-257 melanoma
  GI50: < 0.01 µM
  TGI: 2.84 µM
UACC-62 melanoma
  GI50: > 100 µM
  TGI: > 100 µM
UO-31 renal
  GI50: > 100 µM
  TGI: > 100 µM
